Experiments:
Assay in all cases: relative viability (nuclei count vs DMSO), 5 days (fraction); higher = more cells survive
[1] = system: CAL-12T
How it was run: (§1)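 Lung cancer cell lines, seeded in 1536-well plates, were treated the following day by pin tool with a single drug or with five library-drug doses (not always all listed) in √10 steps on top of a fixed anchor-drug dose. Cells were fixed and nuclei stained in one step after 5 days, and nuclei were counted. Relative viability is the nuclei count for treated wells divided by that for vehicle wells, reported as medians of duplicate plates.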

[2] = system: NCI-H2009
How it was run: as §1

[3] = system: PC-14
How it was run: as §1

[4] = system: HCC-44
How it was run: as §1

[5] = system: LCLC-97TM1
How it was run: as §1

[6] = system: NCI-H727
How it was run: as §1

[7] = system: NCI-H2170
How it was run: as §1

[8] = system: HCC-366
How it was run: as §1

[9] = system: COR-L 105
How it was run: as §1

[10] = system: HCC-15
How it was run: as §1

[11] = system: NCI-H2126
How it was run: as §1

[12] = system: NCI-H1993
How it was run: as §1

[13] = system: NCI-H2087
How it was run: as §1

[14] = system: HCC-827
How it was run: as §1

[15] = system: HOP-62
How it was run: as §1

[16] = system: PC-3 [JPC-3]
How it was run: as §1

[17] = system: SK-MES-1
How it was run: as §1

[18] = system: BEN
How it was run: as §1

[19] = system: LC-2-ad
How it was run: as §1

[20] = system: HARA
How it was run: as §1

[21] = system: COR-L23
How it was run: as §1

[22] = system: LU99A
How it was run: as §1

[23] = system: LXF-289
How it was run: as §1

## Cc1cnc(-c2cnc(NCCNc3ccc(C#N)cn3)nc2-c2ccc(Cl)cc2Cl)[nH]1 + CS(=O)(=O)CCNCc1ccc(-c2ccc3ncnc(Nc4ccc(OCc5cccc(F)c5)c(Cl)c4)c3c2)o1 [Lapatinib] (partner 2 µM)
[1]; first compound 0.253 µM
  relative viability: 0.64
[1]; first compound 2.53 µM
  relative viability: 0.627
[2]; first compound 0.08 µM
  relative viability: 0.991
[2]; first compound 0.253 µM
  relative viability: 0.522
[2]; first compound 0.8 µM
  relative viability: 0.866
[2]; first compound 2.53 µM
  relative viability: 0.905
[3]; first compound 0.08 µM
  relative viability: 0.352
[3]; first compound 0.253 µM
  relative viability: 0.29
[3]; first compound 0.8 µM
  relative viability: 0.277
[3]; first compound 2.53 µM
  relative viability: 0.38
[4]; first compound 0.08 µM
  relative viability: 0.99
[4]; first compound 0.253 µM
  relative viability: 0.858
[4]; first compound 0.8 µM
  relative viability: 0.989
[4]; first compound 2.53 µM
  relative viability: 1.06
[5]; first compound 0.08 µM
  relative viability: 1.1
[5]; first compound 0.253 µM
  relative viability: 0.883
[5]; first compound 0.8 µM
  relative viability: 1.07
[5]; first compound 2.53 µM
  relative viability: 0.745
[6]; first compound 0.08 µM
  relative viability: 0.822
[6]; first compound 0.253 µM
  relative viability: 0.882
[6]; first compound 0.8 µM
  relative viability: 0.765
[6]; first compound 2.53 µM
  relative viability: 0.782
[7]; first compound 0.08 µM
  relative viability: 0.298
[7]; first compound 0.253 µM
  relative viability: 0.262
[7]; first compound 0.8 µM
  relative viability: 0.279
[7]; first compound 2.53 µM
  relative viability: 0.32
[8]; first compound 0.08 µM
  relative viability: 0.989
[8]; first compound 0.253 µM
  relative viability: 0.951
[8]; first compound 0.8 µM
  relative viability: 1.08
[8]; first compound 2.53 µM
  relative viability: 0.935
[9]; first compound 0.08 µM
  relative viability: 0.397
[9]; first compound 0.253 µM
  relative viability: 0.348
[9]; first compound 0.8 µM
  relative viability: 0.318
[9]; first compound 2.53 µM
  relative viability: 0.403
[10]; first compound 0.08 µM
  relative viability: 0.813
[10]; first compound 0.253 µM
  relative viability: 0.577
[10]; first compound 0.8 µM
  relative viability: 0.903
[10]; first compound 2.53 µM
  relative viability: 0.843
[11]; first compound 0.08 µM
  relative viability: 0.753
[11]; first compound 0.253 µM
  relative viability: 0.728
[11]; first compound 0.8 µM
  relative viability: 0.786
[11]; first compound 2.53 µM
  relative viability: 0.741
[12]; first compound 0.08 µM
  relative viability: 0.957
[12]; first compound 0.253 µM
  relative viability: 0.756
[12]; first compound 0.8 µM
  relative viability: 0.823
[12]; first compound 2.53 µM
  relative viability: 0.937
[13]; first compound 0.08 µM
  relative viability: 1.16
[13]; first compound 0.253 µM
  relative viability: 0.729
[13]; first compound 0.8 µM
  relative viability: 1.39
[13]; first compound 2.53 µM
  relative viability: 0.979
[14]; first compound 0.08 µM
  relative viability: 0.189
[14]; first compound 0.8 µM
  relative viability: 0.213
[14]; first compound 2.53 µM
  relative viability: 0.179
[15]; first compound 0.08 µM
  relative viability: 1.01
[15]; first compound 0.253 µM
  relative viability: 0.902
[15]; first compound 0.8 µM
  relative viability: 1.05
[15]; first compound 2.53 µM
  relative viability: 1.04
[16]; first compound 0.08 µM
  relative viability: 0.498
[16]; first compound 0.253 µM
  relative viability: 0.449
[16]; first compound 0.8 µM
  relative viability: 0.419
[16]; first compound 2.53 µM
  relative viability: 0.474
[17]; first compound 0.08 µM
  relative viability: 0.514
[17]; first compound 0.253 µM
  relative viability: 0.474
[17]; first compound 0.8 µM
  relative viability: 0.439
[17]; first compound 2.53 µM
  relative viability: 0.559
[18]; first compound 0.08 µM
  relative viability: 0.615
[18]; first compound 0.253 µM
  relative viability: 0.686
[18]; first compound 0.8 µM
  relative viability: 0.705
[18]; first compound 2.53 µM
  relative viability: 0.621
[19]; first compound 0.08 µM
  relative viability: 1.06
[19]; first compound 0.8 µM
  relative viability: 0.761
[19]; first compound 2.53 µM
  relative viability: 0.898
[20]; first compound 0.08 µM
  relative viability: 1.03
[20]; first compound 0.253 µM
  relative viability: 0.598
[20]; first compound 0.8 µM
  relative viability: 0.799
[20]; first compound 2.53 µM
  relative viability: 0.607
[21]; first compound 0.08 µM
  relative viability: 0.924
[21]; first compound 0.253 µM
  relative viability: 0.856
[21]; first compound 0.8 µM
  relative viability: 0.862
[21]; first compound 2.53 µM
  relative viability: 0.905
[22]; first compound 0.08 µM
  relative viability: 1.06
[22]; first compound 0.253 µM
  relative viability: 0.879
[22]; first compound 0.8 µM
  relative viability: 1.06
[22]; first compound 2.53 µM
  relative viability: 1.04
[23]; first compound 0.08 µM
  relative viability: 0.957
[23]; first compound 0.253 µM
  relative viability: 0.806
[23]; first compound 0.8 µM
  relative viability: 0.896
[23]; first compound 2.53 µM
  relative viability: 1.04

— the supplement of paper PMC10307832
